Like-named read-outs stand apart in the source and are kept apart here. Peptide text beside a SMILES is read from it. * marks the point of attachment. Stearoyl = CCCCCCCCCCCCCCCCCC(=O)*
Columns and labels:
[1] = tested on: HIV-1 pseudovirus, primary Env 92RW020; type: cell-based; details: Env 92RW020, subtype A; mean ± SD of 3 assays in triplicate
Method in brief: (§1)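 Env-pseudotyped viruses were made in HEK293T by cotransfecting an Env plasmid with the luciferase-encoding pSG3Δenv backbone. Threefold inhibitor dilutions were preincubated 1 h at room temperature with 100 TCID50 of virus, then added to TZM-bl cells (10^4/well) for 48 h at 37°C before luciferase was read.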

[2] = tested on: HIV-1 pseudovirus, primary Env B01; type: cell-based; details: Env B01, subtype B'; mean ± SD of 3 assays in triplicate
Method in brief: as §1

[3] = tested on: HIV-1 pseudovirus, primary Env CAP45.2.00.G3; type: cell-based; details: Env CAP45.2.00.G3, subtype C; mean ± SD of 3 assays in triplicate
Method in brief: as §1

[4] = tested on: HIV-1 pseudovirus, primary Env CE703010217_B6; type: cell-based; details: Env CE703010217_B6, subtype C; mean ± SD of 3 assays in triplicate
Method in brief: as §1

[5] = tested on: HIV-1 pseudovirus, primary Env CH070.1; type: cell-based; details: Env CH070.1, subtype B/C; mean ± SD of 3 assays in triplicate
Method in brief: as §1

[6] = tested on: HIV-1 pseudovirus, primary Env JRFL; type: cell-based; details: subtype B, mean ± SD of 3 assays in triplicate
Method in brief: as §1

[7] = tested on: HIV-1 pseudovirus, primary Env SC422661.8; type: cell-based; details: Env SC422661.8, subtype B; mean ± SD of 3 assays in triplicate
Method in brief: as §1

[8] = tested on: HIV-1 pseudovirus, primary Env X1632-S2-B10; type: cell-based; details: Env X1632-S2-B10, subtype G; mean ± SD of 3 assays in triplicate
Method in brief: as §1

[9] = target: T1, gp41 NHR-derived target mimic peptide N39 (Human immunodeficiency virus type 1 group M subtype B, UniProt P04578); test: CD spectroscopy of lipopeptides in complex with target mimic peptide N39; type: binding, HIV-1; set-up: [θ]222: unit not given here; details: complex with N39, each peptide 10 μM in PBS; representative of 2 assays
T1 construct: the gp41 NHR-derived target mimic peptide N39
Source text: Spectra were corrected by subtracting a solvent blank.

SHIVSF162P3 = test: Therapeutic efficacy in chronically SHIV-infected rhesus monkeys; type: in vivo, Chinese rhesus macaques
[10] = rat, in vivo, sc, 6 mg/kg

T1 sequence (P04578 528-566): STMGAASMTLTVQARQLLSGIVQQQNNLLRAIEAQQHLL

CCCCCCCCCCCCCCCCCC(=O)NCCCC[C@H](NC(=O)[C@H](CCC(=O)O)NC(=O)[C@H](CC(C)C)NC(=O)[C@H](CCCCN)NC(=O)[C@H](CCCCN)NC(=O)[C@H](CC(C)C)NC(=O)[C@H](CCC(=O)O)NC(=O)[C@H](CCC(=O)O)NC(=O)[C@H](CCC(=O)O)NC(=O)[C@H](CC(N)=O)NC(=O)[C@H](CCCCN)NC(=O)[C@H](CCCCN)NC(=O)[C@H](CCC(N)=O)NC(=O)[C@H](CCC(N)=O)NC(=O)[C@H](CCC(=O)O)NC(=O)[C@H](CCC(=O)O)NC(=O)[C@H](C)NC(=O)[C@H](CCCCN)NC(=O)[C@H](CCCCN)NC(=O)[C@H](CC(C)C)NC(=O)[C@H](CC(C)C)NC(=O)[C@H](CCC(=O)O)NC(=O)[C@H](CCC(=O)O)NC(=O)[C@@H](NC(=O)[C@H](CCCCN)NC(=O)[C@H](CCC(N)=O)NC(=O)[C@H](CCC(=O)O)NC(=O)[C@H](Cc1c[nH]c2ccccc12)NC(C)=O)[C@@H](C)CC)C(N)=O [LP-80] (Ac-WEQKIEELLKKAEEQQKKNEEELKKLEK(Stearoyl)-NH2)
IC50 [1]: 9.74 ± 0.93 pM
IC50 [2]: 3.49 ± 0.4 pM
IC50 [3]: 1.69 ± 0.48 pM
IC50 [4]: 5.72 ± 1.32 pM
IC50 [5]: 28.5 ± 0.63 pM
IC50 [6]: 10.4 ± 2.25 pM
IC50 [7]: 2.55 ± 0.77 pM
IC50 [8]: 5.56 ± 0.76 pM
Helix content (%) [9]: 57%
[θ]222 [9]: -18955
Plasma viral load (SHIVSF162P3; 1st treatment, SC 3 mg/kg once daily, monkeys K3 and K5, 8 days after treatment, detection limit 100 copies/ml): declined to below the detection limit
Viral replication during treatment (SHIVSF162P3; 1st treatment, SC 3 mg/kg once every 4 days for 4 weeks, five monkeys): fully controlled
Viral rebound during treatment (SHIVSF162P3; 2nd treatment, SC 3 mg/kg twice weekly for 6 months): no viral rebound was detected
Plasma viral load after one injection (SHIVSF162P3; 2nd treatment, SC 3 mg/kg twice weekly, all five monkeys, day 4, before: mean 4.5 log10 RNA copies/ml): below the detection limit
PBMC vDNA load (SHIVSF162P3; 2nd treatment, monkeys K1, K2, K4, K5, detection limit 100 copies/μg total DNA): undetectable levels
Time to viral load rebound after LP-80 was stopped (SHIVSF162P3; after 1st treatment, all treated monkeys): 10 to 21 days
Time to virus rebound after LP-80 cessation (SHIVSF162P3; after 2nd treatment, four monkeys (K1 to K4)): 14 to 28 days
Viral load after LP-80 withdrawal (SHIVSF162P3; after 2nd treatment, monkey K5, 2 months after withdrawal): remained undetectable
Mean PBMC vDNA load (SHIVSF162P3; after a 2-month treatment (2nd treatment), declined from 3.7, quantitative PCR): 2.3 log10 vDNA copies/μg total DNA
Vd/F [10]: 0.535 ± 0.251 L/kg
Injection site reactions (ISRs) (SC 3 mg/kg during the treatment): did not cause significant injection site reactions
TG (after 1st treatment (DPI 263), before (DPI 191) 0.58 ± 0.14): 0.51 ± 0.07 mmol/L
IgA (after 1st treatment (DPI 263), before (DPI 191) 0.93 ± 0.33): 1.05 ± 0.12 g/L
IgM (after 1st treatment (DPI 263), before (DPI 191) 1.28 ± 0.6): 1.12 ± 0.56 g/L
LDL-C (after 1st treatment (DPI 263), before (DPI 191) 1.73 ± 0.44): 1.56 ± 0.37 mmol/L
Ca (after 1st treatment (DPI 263), before (DPI 191) 2.36 ± 0.11): 2.4 ± 0.06 mmol/L
HDL-C (after 1st treatment (DPI 263), before (DPI 191) 2.46 ± 0.07): 1.96 ± 0.26 mmol/L
UA (after 1st treatment (DPI 263), before (DPI 191) 3.08 ± 0.61): 3.25 ± 0.54 µmol/L
GLU (after 1st treatment (DPI 263), before (DPI 191) 4.32 ± 0.32): 5.02 ± 0.98 mmol/L
CHO (after 1st treatment (DPI 263), before (DPI 191) 4.42 ± 0.19): 3.90 ± 0.53 mmol/L
ALP (after 1st treatment (DPI 263), before (DPI 191) 4.6 ± 1.52): 4.2 ± 1.3 U/L
K (after 1st treatment (DPI 263), before (DPI 191) 4.62 ± 0.13): 4.56 ± 0.18 mmol/L
TBIL (after 1st treatment (DPI 263), before (DPI 191) 6.11 ± 1.57): 5.52 ± 0.82 µmol/L
IgG (after 1st treatment (DPI 263), before (DPI 191) 7.12 ± 0.72): 8.6 ± 1.74 g/L
GGT (after 1st treatment (DPI 263), before (DPI 191) 7.4 ± 1.82): 9.2 ± 3.83 U/L
UN (after 1st treatment (DPI 263), before (DPI 191) 8.14 ± 2): 8.38 ± 0.74 mmol/L
AST (after 1st treatment (DPI 263), before (DPI 191) 32.4 ± 3.29): 30.8 ± 3.27 U/L
CK (after 1st treatment (DPI 263), before (DPI 191) 46.4 ± 9.81): 56.6 ± 10.01 U/L
TP (after 1st treatment (DPI 263), before (DPI 191) 74 ± 4.53): 71.26 ± 1.76 g/L
TG (after 2nd treatment (DPI 508), before (DPI 325) 0.67 ± 0.13): 0.62 ± 0.21 mmol/L
IgA (after 2nd treatment (DPI 508), before (DPI 325) 0.76 ± 0.31): 0.86 ± 0.18 g/L
IgM (after 2nd treatment (DPI 508), before (DPI 325) 1.41 ± 0.29): 1.49 ± 0.29 g/L
P (after 2nd treatment (DPI 508), before (DPI 325) 1.74 ± 0.19): 1.29 ± 0.24 mmol/L
HDL-C (after 2nd treatment (DPI 508), before (DPI 325) 2.46 ± 0.31): 2.66 ± 0.45 mmol/L
UA (after 2nd treatment (DPI 508), before (DPI 325) 2.54 ± 0.28): 2.54 ± 0.73 µmol/L
CHO (after 2nd treatment (DPI 508), before (DPI 325) 3.87 ± 0.44): 4.02 ± 0.51 mmol/L
K (after 2nd treatment (DPI 508), before (DPI 325) 4.7 ± 0.2): 4.64 ± 0.26 mmol/L
TBIL (after 2nd treatment (DPI 508), before (DPI 325) 5.92 ± 0.9): 5.52 ± 0.9 µmol/L
UN (after 2nd treatment (DPI 508), before (DPI 325) 9.34 ± 1.26): 7.99 ± 0.92 mmol/L
ALT (after 2nd treatment (DPI 508), before (DPI 325) 12.8 ± 3.27): 13.2 ± 2.86 U/L
AST (after 2nd treatment (DPI 508), before (DPI 325) 27.2 ± 3.11): 31.4 ± 4.45 U/L
CK (after 2nd treatment (DPI 508), before (DPI 325) 54.6 ± 10.74): 55.4 ± 14.19 U/L
Systemic toxicities (blood biochemical parameters, CD4+ and CD8+ T lymphocytes monitored): No systemic toxicities were observed
ALP (rhesus monkey, in vivo): 7.4 ± 2.07 U/L
ALT (rhesus monkey, in vivo): 15.8 ± 3.27 U/L
Ca (rhesus monkey, in vivo): 2.19 ± 0.03 mmol/L
GGT (rhesus monkey, in vivo): 10.4 ± 1.95 U/L
IgG (rhesus monkey, in vivo): 8.52 ± 1.32 g/L
LDH (rhesus monkey, in vivo): 262.8 ± 48.26 U/L
LDL-C (rhesus monkey, in vivo): 1.32 ± 0.32 mmol/L
P (rhesus monkey, in vivo): 0.98 ± 0.07 mmol/L
TP (rhesus monkey, in vivo): 71.15 ± 2.86 g/L
